Measured values: publication PMC5065625, “Structure-mechanism-based engineering of chemical regulators targeting distinct pathological factors in Alzheimer's disease” (Nature Communications, 2016)
Counter-ions that a name gives are not always drawn.

How the values were obtained:
[1] = molecular target: metal-free Aβ40/Aβ42 (Homo sapiens, UniProt P05067); design: method as in PMID 26575890; conditions: cited from earlier work
[2] = Solubility; type: physicochemical; conditions: water; HCl salt

metal-free Aβ40/Aβ42, sequence (P05067 672-711 limits assumed): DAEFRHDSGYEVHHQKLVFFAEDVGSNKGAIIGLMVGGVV

SMILES: CN(C)c1ccc(N)cc1 [DMPD, N,N-dimethyl-p-phenylenediamine]
- Interaction with Aβ and redirection of self-assembly [1]: interact with both metal-free Aβ and metal–Aβ and redirect their self-assembly routes to form off-pathway aggregates

SMILES: Nc1ccc(NCc2ccccn2)cc1 [HCl salt of 1, N^1-(pyridin-2-ylmethyl)benzene-1,4-diamine]
- solubility [2]: ~800 mg/mL
